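Cells were grown in 96-well plates and exposed to each compound for 48 hours at five concentrations; endpoints were interpolated linearly between bracketing concentrations, or set to the highest concentration if not reached. GI50 is the concentration that inhibits growth by half.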 Activity calls are given as the source filed them. Cut-off read from the data, not from the text of the source: active = GI50 up to about 1.1 µM and inactive = higher.
Experiments:
Test in all cases: inhibition of tumour cell growth, NCI panel, 48 h
[1] = tested on: A549
[2] = tested on: EKVX
[3] = tested on: 786-0
[4] = tested on: NCI-H522
[5] = tested on: SW-620
[6] = tested on: Hs-578T
[7] = tested on: HCT-15
[8] = tested on: SK-MEL-28
[9] = tested on: SN12C
[10] = tested on: SF-268
[11] = tested on: SNB-75
[12] = tested on: PC-3
[13] = tested on: ACHN
[14] = tested on: T47D
[15] = tested on: MDA-MB-435
[16] = tested on: OVCAR-5
[17] = tested on: RPMI-8226
[18] = tested on: HT-29
[19] = tested on: K562
[20] = tested on: OVCAR-4
[21] = tested on: DU-145
[22] = tested on: OVCAR-8
[23] = tested on: NCI-H460
[24] = tested on: NCI-H226
[25] = tested on: COLO 205
[26] = tested on: IGROV-1
[27] = tested on: SF-295
[28] = tested on: SR
[29] = tested on: SK-MEL-5
[30] = tested on: SK-MEL-2
[31] = tested on: HCT-116
[32] = tested on: MDA-N
[33] = tested on: NCI-H23
[34] = tested on: KM12
[35] = tested on: HOP-62
[36] = tested on: U-251
[37] = tested on: M14
[38] = tested on: MDA-MB-231
[39] = tested on: SK-OV-3
[40] = tested on: UACC-62
[41] = tested on: HL-60
[42] = tested on: NCI/ADR-RES
[43] = tested on: UACC-257
[44] = tested on: HCC 2998
[45] = tested on: UO-31
[46] = tested on: SNB-19
[47] = tested on: CAKI-1
[48] = tested on: Malme-3M
[49] = tested on: RXF 393
[50] = tested on: A498
[51] = tested on: MOLT-4
[52] = tested on: LOX IMVI
[53] = tested on: OVCAR-3
[54] = tested on: SF-539
[55] = tested on: MCF7
[56] = tested on: TK-10
[57] = tested on: BT-549
[58] = tested on: HOP-92

Question: For O=C(O)C(CCc1ccccn1)c1ccccc1 (stereo not drawn), which GI50 [1] is on record?
Answer: > 100 µM (inactive)

Question: And the GI50 [2]?
Answer: > 100 µM (inactive)

Question: What about the GI50 [3] of the same molecule?
Answer: > 100 µM (inactive)

Question: What about the GI50 [4] of the same molecule?
Answer: > 100 µM (inactive)

Question: What about the GI50 [5] of the same molecule?
Answer: > 100 µM (inactive)

Question: What about the GI50 [6] of the same molecule?
Answer: > 100 µM (inactive)

Question: And the GI50 [7]?
Answer: > 100 µM

Question: What about the GI50 [8] of the same molecule?
Answer: > 100 µM (inactive)

Question: And the GI50 [9]?
Answer: > 100 µM (inactive)

Question: And the GI50 [10]?
Answer: > 100 µM (inactive)

Question: What about the GI50 [11] of the same molecule?
Answer: > 100 µM (inactive)

Question: And the GI50 [12]?
Answer: > 100 µM (inactive)

Question: And the GI50 [13]?
Answer: > 100 µM (inactive)

Question: What about the GI50 [14] of the same molecule?
Answer: > 100 µM (inactive)

Question: And the GI50 [15]?
Answer: > 100 µM (inactive)

Question: What about the GI50 [16] of the same molecule?
Answer: > 100 µM (inactive)

Question: What about the GI50 [17] of the same molecule?
Answer: > 100 µM (inactive)

Question: What about the GI50 [18] of the same molecule?
Answer: > 100 µM (inactive)

Question: What about the GI50 [19] of the same molecule?
Answer: > 100 µM (inactive)

Question: And the GI50 [20]?
Answer: > 100 µM (inactive)

Question: What about the GI50 [21] of the same molecule?
Answer: > 100 µM (inactive)

Question: And the GI50 [22]?
Answer: > 100 µM (inactive)

Question: And the GI50 [23]?
Answer: > 100 µM (inactive)

Question: And the GI50 [24]?
Answer: > 100 µM (inactive)

Question: And the GI50 [25]?
Answer: > 100 µM (inactive)

Question: What about the GI50 [26] of the same molecule?
Answer: > 100 µM (inactive)

Question: What about the GI50 [27] of the same molecule?
Answer: > 100 µM (inactive)

Question: What about the GI50 [28] of the same molecule?
Answer: > 100 µM (inactive)

Question: And the GI50 [29]?
Answer: > 100 µM (inactive)

Question: And the GI50 [30]?
Answer: > 100 µM (inactive)

Question: And the GI50 [31]?
Answer: > 100 µM (inactive)

Question: And the GI50 [32]?
Answer: > 100 µM (inactive)

Question: And the GI50 [33]?
Answer: > 100 µM (inactive)

Question: And the GI50 [34]?
Answer: > 100 µM (inactive)

Question: And the GI50 [35]?
Answer: > 100 µM (inactive)

Question: What about the GI50 [36] of the same molecule?
Answer: > 100 µM (inactive)

Question: What about the GI50 [37] of the same molecule?
Answer: > 100 µM (inactive)

Question: What about the GI50 [38] of the same molecule?
Answer: > 100 µM (inactive)

Question: What about the GI50 [39] of the same molecule?
Answer: > 100 µM (inactive)

Question: And the GI50 [40]?
Answer: > 100 µM (inactive)

Question: And the GI50 [41]?
Answer: 1 µM (active)

Question: And the GI50 [42]?
Answer: > 100 µM (inactive)

Question: And the GI50 [43]?
Answer: > 100 µM (inactive)

Question: And the GI50 [44]?
Answer: > 100 µM (inactive)

Question: And the GI50 [45]?
Answer: > 100 µM (inactive)

Question: And the GI50 [46]?
Answer: > 100 µM (inactive)

Question: And the GI50 [47]?
Answer: > 100 µM (inactive)

Question: What about the GI50 [48] of the same molecule?
Answer: > 100 µM (inactive)

Question: And the GI50 [49]?
Answer: > 100 µM (inactive)

Question: And the GI50 [50]?
Answer: > 100 µM (inactive)

Question: What about the GI50 [51] of the same molecule?
Answer: > 100 µM (inactive)

Question: And the GI50 [52]?
Answer: > 100 µM (inactive)

Question: What about the GI50 [53] of the same molecule?
Answer: > 100 µM (inactive)

Question: And the GI50 [54]?
Answer: > 100 µM (inactive)

Question: And the GI50 [55]?
Answer: > 100 µM (inactive)

Question: What about the GI50 [56] of the same molecule?
Answer: > 100 µM (inactive)

Question: And the GI50 [57]?
Answer: > 100 µM (inactive)

Question: What about the GI50 [58] of the same molecule?
Answer: > 50.4 µM (inactive)
